Reference: the NIST ThermoML archive (doi:10.1016/j.jct.2016.07.005)

How the values were obtained:
[1] = 100 kPa, Liquid; for viscosity: Concentric cylinders viscometry; for mass density: Vibrating tube method
[2] = refractive index (Na D-line) (dimensionless); conditions: 100 kPa, Liquid, Standard Abbe refractometry
[3] = refractive index (Na D-line) (dimensionless); xn = mol fraction of the nth substance listed; conditions: 100 kPa, Liquid, Standard Abbe refractometry, x2 = 0
[4] = xn = mol fraction of the nth substance listed; conditions: 100 kPa, Liquid, x2 = 0; for viscosity: Concentric cylinders viscometry; for mass density: Vibrating tube method

CC(O)CO (centres undefined) [1,2-propanediol]
Conditions	mass density, [1] [kg/m3]	refractive index, [2]	viscosity, [1] [mPa·s]
293.15 K	1036.3	1.43279	59.56
298.15 K	1032.62	1.43111	44.14
303.15 K	1028.91	1.42941	33.25
308.15 K	1025.16	1.42773	25.5
313.15 K	1021.39	1.42601	19.78
318.15 K	1017.57	1.42429	15.76
323.15 K	1013.72	1.42257	12.75

CC(O)CO (centres undefined) [1,2-propanediol] + CN1CCC[C@H]1c1cccnc1
Conditions	mass density, [4] [kg/m3]	refractive index, [3]	viscosity, [4] [mPa·s]
293.15 K	1036.3	1.43279	59.56
298.15 K	1032.62	1.43111	44.14
303.15 K	1028.91	1.42941	33.25
308.15 K	1025.16	1.42773	25.5
313.15 K	1021.39	1.42601	19.78
318.15 K	1017.57	1.42429	15.76
323.15 K	1013.72	1.42257	12.75

CN1CCC[C@H]1c1cccnc1 [(-)-3-(N-methylpyrrolidino)pyridine]
Conditions	mass density, [1] [kg/m3]	refractive index, [2]	viscosity, [1] [mPa·s]
293.15 K	1010.23	1.52665	4.694
298.15 K	1006.16	1.52439	4.048
303.15 K	1002.1	1.52214	3.518
308.15 K	998.055	1.51988	3.088
313.15 K	994.014	1.5179	2.758
318.15 K	989.984	1.51592	2.411
323.15 K	985.962	1.51373	2.195

CCCCO [butan-1-ol]
Conditions	mass density, [1] [kg/m3]	refractive index, [2]	viscosity, [1] [mPa·s]
293.15 K	809.819	1.39922	2.914
298.15 K	805.995	1.39719	2.564
303.15 K	802.148	1.39517	2.258
308.15 K	798.276	1.39311	1.994
313.15 K	794.372	1.39102	1.777
318.15 K	790.429	1.38896	1.589
323.15 K	786.444	1.38688	1.372

CCCCO [butan-1-ol] + CN1CCC[C@H]1c1cccnc1
Conditions	mass density, [4] [kg/m3]	refractive index, [3]	viscosity, [4] [mPa·s]
293.15 K	809.819	1.39922	2.914
298.15 K	805.995	1.39719	2.564
303.15 K	802.148	1.39517	2.258
308.15 K	798.276	1.39311	1.994
313.15 K	794.372	1.39102	1.777
318.15 K	790.429	1.38896	1.589
323.15 K	786.444	1.38688	1.372

CCC(C)O (centres undefined) [butan-2-ol]
Conditions	mass density, [1] [kg/m3]	refractive index, [2]	viscosity, [1] [mPa·s]
293.15 K	807.19	1.39715	3.76
298.15 K	803.049	1.39497	3.093
303.15 K	798.829	1.39274	2.566
308.15 K	794.525	1.39045	2.149
313.15 K	790.127	1.38803	1.816
318.15 K	785.636	1.38571	1.548
323.15 K	781.043	1.38322	1.332

CCC(C)O (centres undefined) [butan-2-ol] + CN1CCC[C@H]1c1cccnc1
Conditions	mass density, [4] [kg/m3]	refractive index, [3]	viscosity, [4] [mPa·s]
293.15 K	807.19	1.39715	3.76
298.15 K	803.049	1.39497	3.093
303.15 K	798.829	1.39274	2.566
308.15 K	794.525	1.39045	2.149
313.15 K	790.127	1.38803	1.816
318.15 K	785.636	1.38571	1.548
323.15 K	781.043	1.38322	1.332

OCCCO [propan-1,3-diol]
Conditions	mass density, [1] [kg/m3]	refractive index, [2]	viscosity, [1] [mPa·s]
293.15 K	1053.03	1.43918	52.31
298.15 K	1049.9	1.43783	41.55
303.15 K	1046.77	1.43648	33.22
308.15 K	1043.63	1.43515	26.87
313.15 K	1040.49	1.43382	21.85
318.15 K	1037.33	1.4324	18.12
323.15 K	1034.16	1.43101	15.21

OCCCO [propan-1,3-diol] + CN1CCC[C@H]1c1cccnc1
Conditions	mass density, [4] [kg/m3]	refractive index, [3]	viscosity, [4] [mPa·s]
293.15 K	1053.03	1.43918	52.31
298.15 K	1049.9	1.43783	41.55
303.15 K	1046.77	1.43648	33.22
308.15 K	1043.63	1.43515	26.87
313.15 K	1040.49	1.43382	21.85
318.15 K	1037.33	1.4324	18.12
323.15 K	1034.16	1.43101	15.21
